Data reported in patent US20070148110A1, “Aqueous-alcoholic depigmenting gels comprising mequinol and adapalene” (GALDERMA RESEARCH & DEVELOPMENT, priority 2004, published 2007).

System: skin of the tail of the SKH2 mouse
Assay: Depigmenting activity on the skin of the tail of the SKH2 mouse
Assay type: in vivo
Set-up: key to depigmentation score: 0: natural pigmentation; −1: slight depigmentation; −2: moderate depigmentation; −3: marked depigmentation; −4: total depigmentation
Details: adapalene 0.1%; for depigmentation score: 4 weeks topical; for depigmenting effect: topical, after 4 weeks, mequinol 2%
Experimental: The purpose of the present study is to evaluate the depigmenting activity of a composition comprising either (i) 2% of mequinol, (ii) 0.1% of adapalene or (iii) the combination of both of them (composition according to the invention) on the skin of the tail of the SKH2 mouse after 4 weeks of topical application.
The two formulations gel and gel-cream are also compared. The two formulations (20 μl) are applied topically on the tails of SKH2 mice separated into two groups (female mice about 9 weeks old) at the rate of one application per day for 5 days over a period of 4 weeks.
Evaluation is based on various clinical observations: once a week, the pigmentation is evaluated as a score on a scale from 0 to 4. The basis of scoring is as follows: • 0: natural pigmentation Depigmentation scale: scores −1 to −4 • −1: slight depigmentation • −2: moderate depigmentation • −3: marked depigmentation • −4: total depigmentation

SMILES	depigmentation score (gel formulation)	depigmentation score (gel-cream formulation)	depigmenting effect
COc1ccc(-c2ccc3cc(C(=O)O)ccc3c2)cc1C12CC3CC(CC(C3)C1)C2 [Adapalene, 6-[3-(1-adamantyl)-4-methoxyphenyl]-2-naphthoic acid]	0	0	does not have a depigmenting effect
COc1ccc(O)cc1 [Mequinol, 4-hydroxyanisole]			significant depigmenting effect
